Laboratory results: patent US20200407393A1, “Medical Use” (priority 2018, published 2020)
Read-outs that look alike come from different tables or passages of the source.

Columns and labels:
[1] = tested on: WT pseudotyped virus (PSV) infection of U373 cells; assay: microbe, parasite or virus in culture; format: cell-based; conditions: for IC50: Human immunodeficiency virus 1, U373 MG, cells treated 6 h, washed; for Fold Change vs EFdA: fold change of the persistence index relative to EFdA; for Persistence Index: ratio of the IC50 determined at 48 and 0 h
[2] = tested on: M184V pseudotyped virus in U373 cells; format: cell-based, HIV;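 note: reported value is IC50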
[3] = tested on: WT pseudotyped virus (NL4-3 provirus with HIV gp160 envelope) in U373 cells; assay: PSV assay (pseudotyped virus assay), WT; conditions: read-out: WT IC50
Text: A pseudotyped virus assay (PSV) was used to assess the potency of the compounds. Replication defective virus was produced by co-transfection of a plasmid containing an NL4-3 provirus [containing a mutation in the envelope open reading frame (ORF) and a luciferase reporter gene replacing the nef ORF] and a CMV-promoter expression plasmid containing an ORF for various HIV gp160 envelope clones. The harvested virus was stored at −80 C in small aliquots and the titer of the virus measured to produce a robust signal for antiviral assays.
The PSV assay was performed by using U373 cells stably transformed to express human CD4, the primary receptor for HIV entry and either human CXCR4 or human CCR5 which are the co-receptors required for HIV entry as target cells for infection. […] This dose-range was applied to U373 cells and the pre-made pseudotyped virus added. The amount of luciferase signal produced after 3 days of culture was used to reflect the level of pseudotyped virus infection. […] IC50 values were determined from a 10 point dose response curve using 3-4-fold serial dilution for each compound, which spans a concentration range>1000 fold.
These values are plotted against the molar compound concentrations using the standard four parameter logistic equation:
y=((Vmax*x^n)/(K^n+x^n))+Y2 • where: • Y2=minimum y n=slope factor • Vmax=maximum y x=compound concentration [M] • K=EC50

[4] = infected immediately (0 h), read-out: WT IC50 at t = 0 h
[5] = Table 4, luciferase signal after 3 days of culture
[6] = Table 5, mean of a greater number of data replicates
[7] = infected 48 h after removal of compound, read-out: WT IC50 at t = 48 h
[8] = Human immunodeficiency virus 1, NL43, U373 MG, 72 h
[9] = Human immunodeficiency virus 1, NL43, U373 MG

Compound: C#C[C@]1(CO)O[C@@H](n2cnc3c(N)nc(F)nc32)C[C@@H]1O [EFdA, (2R,3S,5R)-5-(6-amino-2-fluoro-9H-purin-9-yl)-2-ethynyl-2-(hydroxymethyl)tetrahydrofuran-3-ol, reference compound]
- IC50 [1, 4]: 7.4 nM
- Fold Change vs EFdA [1]: 1.00
- Persistence Index [1]: 42.87

Compound: C#C[C@]1(COC(=O)CCCCCCCCCCCCC)O[C@@H](n2cnc3c(N)nc(F)nc32)C[C@@H]1O [Example 1, ((2R,3S,5R)-5-(6-amino-2-fluoro-9H-purin-9-yl)-2-ethynyl-3-hydroxytetrahydrofuran-2-yl)methyl tetradecanoate]
- IC50 [2, 5]: 12 nM
- IC50 [2, 6]: 10 nM
- IC50 [1, 7]: 89.1 nM
- IC50 [1, 4]: 2.5 nM
- Fold Change vs EFdA [1]: 1.33
- Persistence Index [1]: 35.22
- IC50 [3, 8]: 2 nM
- IC50 [3, 9]: 1 nM

Compound: C#C[C@]1(COC(=O)CCCCCC)O[C@@H](n2cnc3c(N)nc(F)nc32)C[C@@H]1O [Example 2, ((2R,3S,5R)-5-(6-amino-2-fluoro-9H-purin-9-yl)-2-ethynyl-3-hydroxytetrahydrofuran-2-yl)methyl heptanoate]
- IC50 [2, 5]: 12 nM
- IC50 [2, 6]: 15 nM
- IC50 [3, 8]: 3 nM
- IC50 [3, 9]: 3 nM

Compound: C#C[C@]1(COC(=O)CCCCCCCCC)O[C@@H](n2cnc3c(N)nc(F)nc32)C[C@@H]1O [Example 3, ((2R,3S,5R)-5-(6-amino-2-fluoro-9H-purin-9-yl)-2-ethynyl-3-hydroxytetrahydrofuran-2-yl)methyl decanoate]
- IC50 [2, 5]: 15 nM
- IC50 [2, 6]: 14 nM
- IC50 [3, 8]: 2 nM
- IC50 [3, 9]: 3 nM

Compound: C#C[C@]1(COC(=O)C(CCC)CCC)O[C@@H](n2cnc3c(N)nc(F)nc32)C[C@@H]1O [Example 4, ((2R,3S,5R)-5-(6-amino-2-fluoro-9H-purin-9-yl)-2-ethynyl-3-hydroxytetrahydrofuran-2-yl)methyl 2-propyl pentanoate]
- IC50 [2, 5]: 119 nM
- IC50 [2, 6]: 111 nM
- IC50 [1, 7]: 691 nM
- IC50 [1, 4]: 21.1 nM
- Fold Change vs EFdA [1]: 1.31
- Persistence Index [1]: 32.78
- IC50 [3, 8]: 14 nM
- IC50 [3, 9]: 20 nM

Compound: C#C[C@]1(COC(=O)CCCCCCCCCCCCCCCCCCC)O[C@@H](n2cnc3c(N)nc(F)nc32)C[C@@H]1O [Example 5, ((2R,3S,5R)-5-(6-amino-2-fluoro-9H-purin-9-yl)-2-ethynyl-3-hydroxytetrahydrofuran-2-yl)methyl icosanoate]
- IC50 [2, 5]: 322 nM
- IC50 [2, 6]: 333 nM
- IC50 [1, 7]: 102 nM
- IC50 [1, 4]: 51.7 nM
- Fold Change vs EFdA [1]: 23.90
- Persistence Index [1]: 1.97
- IC50 [3, 8]: 70 nM
- IC50 [3, 9]: 67 nM

Compound: C#C[C@]1(COC(=O)CCCCCCC/C=C\C/C=C\C/C=C\CC)O[C@@H](n2cnc3c(N)nc(F)nc32)C[C@@H]1O [Example 6, (9Z,12Z,15Z)-((2R,3S,5R)-5-(6-amino-2-fluoro-9H-purin-9-yl)-2-ethynyl-3-hydroxytetrahydrofuran-2-yl)methyl octadeca-9,12,15-trienoate]
- IC50 [2, 5]: 24 nM
- IC50 [2, 6]: 21 nM
- IC50 [1, 7]: 180 nM
- IC50 [1, 4]: 3.7 nM
- Fold Change vs EFdA [1]: 0.75
- Persistence Index [1]: 56.90
- IC50 [3, 8]: 4 nM
- IC50 [3, 9]: 4 nM

Compound: C#C[C@]1(COC(C)=O)O[C@@H](n2cnc3c(N)nc(F)nc32)C[C@@H]1O [Example 7, ((2R,3S,5R)-5-(6-amino-2-fluoro-9H-purin-9-yl)-2-ethynyl-3-hydroxytetrahydrofuran-2-yl)methyl acetate]
- IC50 [2, 6]: 55 nM
- IC50 [3, 9]: 14 nM

Compound: C#C[C@]1(COC(=O)CC)O[C@@H](n2cnc3c(N)nc(F)nc32)C[C@@H]1O [Example 8, ((2R,3S,5R)-5-(6-amino-2-fluoro-9H-purin-9-yl)-2-ethynyl-3-hydroxytetrahydrofuran-2-yl)methyl propionate]
- IC50 [2, 6]: 39 nM
- IC50 [3, 9]: 8 nM

Compound: C#C[C@]1(COC(=O)CCC)O[C@@H](n2cnc3c(N)nc(F)nc32)C[C@@H]1O [Example 9, ((2R,3S,5R)-5-(6-amino-2-fluoro-9H-purin-9-yl)-2-ethynyl-3-hydroxytetrahydrofuran-2-yl)methyl butyrate]
- IC50 [2, 6]: 26 nM
- IC50 [3, 9]: 5 nM

Compound: C#C[C@]1(COC(=O)CCCC)O[C@@H](n2cnc3c(N)nc(F)nc32)C[C@@H]1O [Example 10, ((2R,3S,5R)-5-(6-amino-2-fluoro-9H-purin-9-yl)-2-ethynyl-3-hydroxytetrahydrofuran-2-yl)methyl pentanoate]
- IC50 [2, 6]: 19 nM
- IC50 [3, 9]: 3 nM

Compound: C#C[C@]1(COC(=O)CCCCCCCC)O[C@@H](n2cnc3c(N)nc(F)nc32)C[C@@H]1O [Example 11, ((2R,3S,5R)-5-(6-amino-2-fluoro-9H-purin-9-yl)-2-ethynyl-3-hydroxytetrahydrofuran-2-yl)methyl nonanoate]
- IC50 [2, 6]: 13 nM
- IC50 [3, 9]: 3 nM

Compound: C#C[C@]1(COC(=O)CCCCCCCCCC)O[C@@H](n2cnc3c(N)nc(F)nc32)C[C@@H]1O [Example 12, ((2R,3S,5R)-5-(6-amino-2-fluoro-9H-purin-9-yl)-2-ethynyl-3-hydroxytetrahydrofuran-2-yl)methyl undecanoate]
- IC50 [2, 6]: 9 nM
- IC50 [3, 9]: 2 nM

Compound: C#C[C@]1(COC(=O)CCCCCCCCCCCC)O[C@@H](n2cnc3c(N)nc(F)nc32)C[C@@H]1O [Example 13, ((2R,3S,5R)-5-(6-amino-2-fluoro-9H-purin-9-yl)-2-ethynyl-3-hydroxytetrahydrofuran-2-yl)methyl tridecanoate]
- IC50 [2, 6]: 12 nM
- IC50 [3, 9]: 2 nM

Compound: C#C[C@]1(COC(=O)CCCCCCCCCCCCCC)O[C@@H](n2cnc3c(N)nc(F)nc32)C[C@@H]1O [Example 14, ((2R,3S,5R)-5-(6-amino-2-fluoro-9H-purin-9-yl)-2-ethynyl-3-hydroxytetrahydrofuran-2-yl)methyl pentadecanoate]
- IC50 [2, 6]: 11 nM
- IC50 [3, 9]: 2 nM

Compound: C#C[C@]1(COC(=O)CCCCCCCCCCCCCCCC)O[C@@H](n2cnc3c(N)nc(F)nc32)C[C@@H]1O [Example 15, ((2R,3S,5R)-5-(6-amino-2-fluoro-9H-purin-9-yl)-2-ethynyl-3-hydroxytetrahydrofuran-2-yl)methyl heptadecanoate]
- IC50 [2, 6]: 26 nM
- IC50 [3, 9]: 4 nM

Compound: C#C[C@]1(COC(=O)CCCCCCCC#CC)O[C@@H](n2cnc3c(N)nc(F)nc32)C[C@@H]1O [Example 17, ((2R,3S,5R)-5-(6-amino-2-fluoro-9H-purin-9-yl)-2-ethynyl-3-hydroxytetrahydrofuran-2-yl)methyl undec-9-ynoate]
- IC50 [2, 6]: 13 nM
- IC50 [3, 9]: 3 nM

Compound: C#C[C@]1(COC(=O)CCCCCCCC#CCCCCCCCC)O[C@@H](n2cnc3c(N)nc(F)nc32)C[C@@H]1O [Example 18, ((2R,3S,5R)-5-(6-amino-2-fluoro-9H-purin-9-yl)-2-ethynyl-3-hydroxytetrahydrofuran-2-yl)methyl octadec-9-ynoate]
- IC50 [2, 6]: 14 nM
- IC50 [3, 9]: 2 nM

Compound: C#C[C@]1(COC(=O)C(C)(C)C)O[C@@H](n2cnc3c(N)nc(F)nc32)C[C@@H]1O [Example 19, ((2R,3S,5R)-5-(6-amino-2-fluoro-9H-purin-9-yl)-2-ethynyl-3-hydroxytetrahydrofuran-2-yl)methyl pivalate]
- IC50 [2, 6]: 150 nM
- IC50 [3, 9]: 30 nM

Compound: C#C[C@]1(COC(=O)C(C)(C)CCC)O[C@@H](n2cnc3c(N)nc(F)nc32)C[C@@H]1O [Example 20, ((2R,3S,5R)-5-(6-amino-2-fluoro-9H-purin-9-yl)-2-ethynyl-3-hydroxytetrahydrofuran-2-yl)methyl 2,2-dimethylpentanoate]
- IC50 [2, 6]: 91 nM
- IC50 [3, 9]: 25 nM

Compound: C#C[C@]1(COC(=O)C(CCCC)CCCCCC)O[C@@H](n2cnc3c(N)nc(F)nc32)C[C@@H]1O (stereo partly drawn) [Example 21, ((2R,3S,5R)-5-(6-amino-2-fluoro-9H-purin-9-yl)-2-ethynyl-3-hydroxytetrahydrofuran-2-yl)methyl 2-butyloctanoate]
- IC50 [2, 6]: 113 nM
- IC50 [3, 9]: 25 nM

Compound: C#C[C@]1(COC(=O)C(CCCCCC)CCCCCCCC)O[C@@H](n2cnc3c(N)nc(F)nc32)C[C@@H]1O (stereo partly drawn) [Example 22, ((2R,3S,5R)-5-(6-amino-2-fluoro-9H-purin-9-yl)-2-ethynyl-3-hydroxytetrahydrofuran-2-yl)methyl 2-hexyldecanoate]
- IC50 [2, 6]: 176 nM
- IC50 [3, 9]: 36 nM

Compound: C#C[C@]1(COC(=O)C(C)CCCCC)O[C@@H](n2cnc3c(N)nc(F)nc32)C[C@@H]1O (stereo partly drawn) [Example 23, ((2R,3S,5R)-5-(6-amino-2-fluoro-9H-purin-9-yl)-2-ethynyl-3-hydroxytetrahydrofuran-2-yl)methyl 2-methylheptanoate]
- IC50 [2, 6]: 7 nM
- IC50 [3, 9]: 1 nM

Compound: C#C[C@]1(COC(=O)CC(F)(F)F)O[C@@H](n2cnc3c(N)nc(F)nc32)C[C@@H]1O [Example 24, ((2R,3S,5R)-5-(6-amino-2-fluoro-9H-purin-9-yl)-2-ethynyl-3-hydroxytetrahydrofuran-2-yl)methyl 3,3,3-trifluoropropanoate]
- IC50 [2, 6]: 37 nM
- IC50 [3, 9]: 8 nM

Compound: C#C[C@]1(COC(=O)C(C)(C)C(F)(F)F)O[C@@H](n2cnc3c(N)nc(F)nc32)C[C@@H]1O [Example 25, ((2R,3S,5R)-5-(6-amino-2-fluoro-9H-purin-9-yl)-2-ethynyl-3-hydroxytetrahydrofuran-2-yl)methyl 3,3,3-trifluoro-2,2-dimethylpropanoate]
- IC50 [2, 6]: 90 nM
- IC50 [3, 9]: 21 nM

Compound: ((2R,3S,5R)-5-(6-amino-2-fluoro-9H-purin-9-yl)-2-ethynyl-3-hydroxytetrahydrofuran-2-yl)methyl tetracosanoate [Example 16]
- IC50 [2, 6]: 10700 nM
- IC50 [3, 6]: 2280 nM
